Experimental data: patent US8586613B2, “Pyridinium and quinolinium derivatives” (Universidad de Granada, priority 2004, dated 2013)

Key:
[1] = biological target: T1, choline kinase from Plasmodium falcifarum (Pf-ChoK) (Plasmodium falciparum, UniProt Q8IM71); experiment: Sensitivity of Plasmodium falcifarum choline kinase (expressed in E. coli); format: biochemical; settings: read-out: IC50 (inhibition of Pf-ChoK)
T1 construct: made in house; host or cells: E. coli
Experimental: The sensitivity of choline kinase of the parasite Plasmodium falcifarum (Pf) was also tested with choline kinase inhibitors. Choline kinase from Pf was expressed in E. coli (FIG. 3) and tested for activity (data not shown). Optimal conditions were established and the IC50 determined.

[2] = test system: MDA.MB.231 (breast cancer cell line) xenograft; experiment: Antitumor activity in breast xenografts (MDA.MB.231); format: in vivo, Balb/c nude mice
Experimental: (§1) Six-week-old Balb/c nude mice (Charles River) were used. The research protocol was approved by the National Biotechnology Centre (CNB) Ethics Committee and animals were maintained in accordance to the Spanish Law guidelines (12 h light/dark cycle, and ad libitum access to food and autoclaved water). Mice were inoculated s.c. in both lower flanks with 1×10^6 of MDA.MB.231 (breast cancer cell line) cells resuspended in 100 μL of serum free DMEN (Invitrogen) media. MDA.MB.231 cells were passed at 80% to 90% confluence every 2 to 3 days in DMEN (Invitrogen) supplemented with 10% fetal bovine serum (FBS, Invitrogen), to ensure exponential growth before using them for the in vivo experiments.
(§2) Mice developing measurable subcutaneous tumors (˜0.1 cm^3) within 3 to 4 weeks were randomized to either treated or control groups (treated only with the drug vehicle). Tumor growth was monitored by measuring their size two to three times per week. Tumors were measured in two dimensions with digital calipers and tumor volume was estimated using the formula of a rational ellipse (D×d^2)/2, where D is the length of the long diameter and d is the short one. […]
Body weight of mice was assessed once per week and tumor volumes of the untreated and treated groups were compared and analyzed using the non parametric Mann-Whitney test. […]

[3] = test system: H460 (human NSCLC cells) xenograft; experiment: Antitumor activity in lung xenografts (H460); format: in vivo, Balb/c nude mice
Experimental: as §1, with “H460 (human NSCLC cells)” for “MDA.MB.231 (breast cancer cell line)”, “RPMI” for “DMEN”, “H460” for “MDA.MB.231”, “in” for “them for”
as §2, with “(˜0.15-0.2” for “(˜0.1”, “2” for “3 to 4”
Body weight of mice was assessed once per week and tumor volumes between the untreated and treated groups were compared and analyzed using the non parametric Mann-Whitney test. […]

HT-29 cells = experiment: HT-29 cell proliferation assay (Crystal Violet); format: cell-based, human; settings: six days of treatment
Experimental: The HT-29 cells were seeded in 24-well plates (35×10^3 cells/well) and were incubated for 24 hours. Then the cells were treated with different concentrations of ChoK inhibitors in the usual culture medium. Three days later, the wells were aspirated and both fresh medium and more amount of drug were added, and the cells were maintained for three more days. The quantification of the remaining cells in each well was carried out by means of the Crystal Violet method [Gillies, R. J., Didier, N., Denton, M. Anal. Biochem. 159, 109-113 (1986)], with some modifications [Hernández-Alcoceba, R., Saniger, L., Campos, J., Núñez, M. C., Khaless, F., Gallo, M. Á., Espinosa, A., Lacal, J. C. Oncogene, 15, 2289-2301 (1997)]. Briefly, the cells were washed with TD buffer and fixed with 1% glutaraldehyde for 15 minutes. After washing again with TD, the cell nuclei were coloured with 0.1% Crystal Violet for at least 30 minutes and washed three times with distilled water. The adsorbed colouring was resuspended in 10% acetic acid and the absorbance at 595 nm was determined in a spectrometer. […] This value determined by iterative curve adjustment. Two values are determined for each point of the curve, the experiment was repeated two or three times and the mean values were estimated. In the few cases in which the two values differed more than 50%, a third experiment was carried out to determine the real value. The IC50 value as a potency measurement is used to relate the biological activity of the compounds with their chemical structure.

MDA.MB.468 = experiment: MTT cell viability, panel of cell lines; format: cell-based, human; settings: MDA.MB.468, Breast, 72 h
Experimental: (§3) This effect can be observed in Table 1, where sensitivity to RSM932A of non-transformed MCF-10A epithelial cells is compared to 12 different human-tumor-derived cells from different tissues, including breast, lung, colon and pancreatic tumor cell lines.
(§4) The experimental conditions were as follows: cells were seeded at 10,000 cells per well into 96-well plates (BD, Falcon, Bioscience, San Jose, Calif., USA). Exponentially growing cells for 24 hours were exposed to different concentrations (quadruplicates for each concentration) of the compound for 72 hours. The colorimetric assay MTT (3-(4,5-dimethylthiazol-2-yl)-2,5-diphenyltetrazolium bromide was used to assess cell viability. The reaction correlates with absorbance read at 595 nm in a VersaMax Microplate Reader (Molecular Devices, Sunnyvale, Calif., USA). The IC50 (50% inhibitory concentration of a substance) is quantified by plotting the log OD (optical density) versus log drug concentration. IC50: Concentration of the compound that causes 50% growth inhibition with respect to control cells without drug.

SW620 = experiment: MTT cell viability, panel of cell lines; format: cell-based, human; settings: SW620, Colon, 72 h
Experimental: as §3, §4

MDA.MB.231 = experiment: MTT cell viability, panel of cell lines; format: cell-based, human; settings: MDA.MB.231, Breast, 72 h
Experimental: as §3, §4

Mia.PaCa.2 = experiment: MTT cell viability, panel of cell lines; format: cell-based, human; settings: Mia.PaCa.2, Pancreas, 72 h
Experimental: as §3, §4

H460 = experiment: MTT cell viability, panel of cell lines; format: cell-based, human; settings: H460, Lung, 72 h
Experimental: as §3, §4

H510 = experiment: MTT cell viability, panel of cell lines; format: cell-based, human; settings: H510, Lung, 72 h
Experimental: as §3, §4

DLD-1 = experiment: MTT cell viability, panel of cell lines; format: cell-based, human; settings: DLD-1, Colon, 72 h
Experimental: as §3, §4

H1299 = experiment: MTT cell viability, panel of cell lines; format: cell-based, human; settings: H1299, Lung, 72 h
Experimental: as §3, §4

T47D = experiment: MTT cell viability, panel of cell lines; format: cell-based, human; settings: Breast, 72 h
Experimental: as §3, §4

SkBr-3 = experiment: MTT cell viability, panel of cell lines; format: cell-based, human; settings: SkBr-3, Breast, 72 h
Experimental: as §3, §4

HT-29 = experiment: MTT cell viability, panel of cell lines; format: cell-based, human; settings: HT-29, Colon, 72 h
Experimental: as §3, §4

HCT-116 = experiment: MTT cell viability, panel of cell lines; format: cell-based, human; settings: HCT-116, Colon, 72 h
Experimental: as §3, §4

[4] = test system: MCF10-A (non-transformed epithelial cells); experiment: MTT cell viability, panel of cell lines; format: cell-based; settings: Non-tumorogenic, 72 h
Experimental: as §3, §4

T1 sequence (Q8IM71 entry or part of it): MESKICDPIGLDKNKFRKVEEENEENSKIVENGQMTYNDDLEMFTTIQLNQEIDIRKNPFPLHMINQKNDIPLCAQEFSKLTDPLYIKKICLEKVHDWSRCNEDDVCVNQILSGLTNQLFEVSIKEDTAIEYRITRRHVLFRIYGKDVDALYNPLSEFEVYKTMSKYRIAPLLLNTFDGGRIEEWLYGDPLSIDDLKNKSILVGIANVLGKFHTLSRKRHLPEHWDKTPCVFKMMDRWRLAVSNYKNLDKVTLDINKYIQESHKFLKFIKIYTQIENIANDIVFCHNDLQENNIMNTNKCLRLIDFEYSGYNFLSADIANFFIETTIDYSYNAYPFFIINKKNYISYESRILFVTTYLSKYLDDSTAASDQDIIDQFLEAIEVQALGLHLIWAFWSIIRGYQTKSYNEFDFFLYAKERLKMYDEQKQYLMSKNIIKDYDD

Q: How did the IC50 [1] turn out when `CN(c1ccc(Cl)cc1)c1cc[n+](Cc2ccc(-c3ccc(C[n+]4ccc(N(C)c5ccc(Cl)cc5)c5ccccc54)cc3)cc2)c2ccccc12.[Br-].[Br-]` [Compound 7, 1,1′-(biphenyl-4,4′-diylmethylene)bis[4-(4-chloro-N-methylanilino)quinolinium]dibromide] was run?
A: 930 nM

Q: What about the “Loss Weight” value ([2]; MDA.MB.231 xenograft mice, 1st day vs last day of treatment (24 g to 22.2 g)) of the same molecule?
A: 7.5%

Q: What about the “percentage of inhibition of tumor growth” value ([2]; MDA.MB.231 xenograft, 5 mg/kg i.p., three days per week for three weeks, after 20 days, relative to control mice) of the same molecule?
A: 54.5%

Q: What about the “Loss Weight” value ([3]; H460 xenograft mice, 1st day vs last day of treatment (23.2 g to 20.8 g)) of the same molecule?
A: 10.5%

Q: What about the “percentage of inhibition of tumor growth” value ([3]; H460 xenograft, 6 mg/kg i.p., five days in a week plus a boost, after 22 days, relative to control mice) of the same molecule?
A: 64.5%

Q: What about the IC50 (HT-29 cells) of the same molecule?
A: 1200 nM

Q: What about the IC50 (MDA.MB.468) of the same molecule?
A: 2400 nM

Q: What about the IC50 (SW620) of the same molecule?
A: 2100 nM

Q: What about the IC50 (MDA.MB.231) of the same molecule?
A: 1300 nM

Q: And the IC50 (Mia.PaCa.2)?
A: 2300 nM

Q: What about the IC50 (H460) of the same molecule?
A: 1900 nM

Q: What about the IC50 (H510) of the same molecule?
A: 1400 nM

Q: What about the IC50 (DLD-1) of the same molecule?
A: 2100 nM

Q: What about the IC50 (H1299) of the same molecule?
A: 1900 nM

Q: And the IC50 (T47D)?
A: 2250 nM

Q: What about the IC50 (SkBr-3) of the same molecule?
A: 3100 nM

Q: What about the IC50 (HT-29) of the same molecule?
A: 1700 nM

Q: What about the IC50 (HCT-116) of the same molecule?
A: 1800 nM

Q: And the IC50 [4]?
A: 7100 nM
